Experiment [1] addresses T1, Eukaryotic elongation factor 2 kinase (Homo sapiens, UniProt O00418).
T1 sequence (O00418 whole entry): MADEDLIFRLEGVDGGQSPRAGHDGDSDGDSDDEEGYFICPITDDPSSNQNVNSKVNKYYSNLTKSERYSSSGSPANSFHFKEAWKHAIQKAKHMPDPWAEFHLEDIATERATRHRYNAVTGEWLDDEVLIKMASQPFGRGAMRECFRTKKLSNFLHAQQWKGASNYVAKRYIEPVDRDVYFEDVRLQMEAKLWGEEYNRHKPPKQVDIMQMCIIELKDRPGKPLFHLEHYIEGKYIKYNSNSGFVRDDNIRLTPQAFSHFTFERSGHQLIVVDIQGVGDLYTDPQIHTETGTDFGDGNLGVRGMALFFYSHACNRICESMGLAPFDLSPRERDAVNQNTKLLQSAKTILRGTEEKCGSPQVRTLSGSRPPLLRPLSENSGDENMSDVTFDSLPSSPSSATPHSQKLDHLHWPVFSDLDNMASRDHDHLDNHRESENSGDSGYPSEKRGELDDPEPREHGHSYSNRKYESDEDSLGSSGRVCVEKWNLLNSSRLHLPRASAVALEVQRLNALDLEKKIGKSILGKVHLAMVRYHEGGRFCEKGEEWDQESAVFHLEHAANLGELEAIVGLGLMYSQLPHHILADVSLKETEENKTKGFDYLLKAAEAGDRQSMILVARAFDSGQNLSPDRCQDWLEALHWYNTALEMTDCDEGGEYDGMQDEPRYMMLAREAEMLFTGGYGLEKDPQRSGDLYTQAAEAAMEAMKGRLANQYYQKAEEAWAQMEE
The experiment can be described thus: Inhibition of N-terminal GST-tagged recombinant human eEF2K expressed in Escherichia coli using biotinylated myelin basic protein as substrate after 45 mins in presence of [gamma-33P]-ATP by scintillation counting method.

The target of experiment [2] is T2, Eukaryotic elongation factor 2 kinase (Rattus norvegicus, UniProt P70531).
T2 sequence (P70531 whole entry): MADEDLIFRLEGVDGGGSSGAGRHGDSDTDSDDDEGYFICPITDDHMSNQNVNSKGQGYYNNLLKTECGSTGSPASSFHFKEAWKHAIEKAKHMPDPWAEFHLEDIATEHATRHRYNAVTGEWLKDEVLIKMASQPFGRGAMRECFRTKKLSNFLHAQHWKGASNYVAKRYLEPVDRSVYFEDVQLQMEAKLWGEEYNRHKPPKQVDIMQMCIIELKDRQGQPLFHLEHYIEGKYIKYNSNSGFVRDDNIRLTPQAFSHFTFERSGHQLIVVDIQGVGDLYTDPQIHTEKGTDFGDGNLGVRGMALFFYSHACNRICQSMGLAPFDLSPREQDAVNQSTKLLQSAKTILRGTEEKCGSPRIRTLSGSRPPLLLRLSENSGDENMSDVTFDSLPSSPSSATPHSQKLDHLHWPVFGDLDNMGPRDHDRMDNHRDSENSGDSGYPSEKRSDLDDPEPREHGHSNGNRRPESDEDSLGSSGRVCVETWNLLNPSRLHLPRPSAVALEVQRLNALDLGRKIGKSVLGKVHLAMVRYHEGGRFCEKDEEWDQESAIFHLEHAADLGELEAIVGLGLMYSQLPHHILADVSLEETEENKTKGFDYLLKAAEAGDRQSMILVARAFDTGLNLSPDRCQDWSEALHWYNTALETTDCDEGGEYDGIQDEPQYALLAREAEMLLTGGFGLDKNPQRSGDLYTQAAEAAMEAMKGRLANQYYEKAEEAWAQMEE
The experiment can be described thus: Inhibition of recombinant rat GST-tagged eEF2K expressed in Escherichia coli BL21 (DE3) cells using yeast eEF2 as substrate preincubated for 30 mins followed by ATP/[gamma-32P]-ATP addition measured after 10 mins.

In experiment [3] the target is T1, Eukaryotic elongation factor 2 kinase. The experiment can be described thus: Inhibition of eEF2K (unknown origin) using peptide MH-1 as substrate after 2 hrs by ADP-Glo luminescent assay. In general terms: In ADP-Glo the light output rises with the ADP produced.
The test system of experiment [4] is MDA-MB-436. The experiment can be described thus: Antiproliferative activity against human MDA-MB-436 cells assessed as decrease in cell viability after 24 hrs by MTT assay. In kind it is functional, cell-based. The settings on record: MDA-MB-436, 24 h. Background: Formazan colour is commonly taken as a measure of viable cells.
Experiment [5] deals with MDA-MB-231. The experiment can be described thus: cells. As to conditions: Homo sapiens, MDA-MB-231, 24 h.
Description: Antiproliferative activity against human MDA-MB-231 cells assessed as decrease in cell viability after 24 hrs by MTT assay

Each structure is given as a SMILES string.

Usually IC50 stands for the concentration that inhibits the measured activity by half.

For the compound `CCCCCCCCCCCCCCCC[N+]1=C(C)N(Cc2ccccc2)CC1`, the IC50 in experiment [1] is 0.06 µM.
On to `CCC1(O)CC(C(C)C)[Se]C(c2ccc(C)cc2)=N1` (configuration not stated), for which, in experiment [2], the IC50 was found to be 0.36 µM.
`COc1ccccc1S(=O)(=O)NC(CC(=O)O)c1ccc(C(C)(C)C)cc1` (configuration not stated): the values for the IC50 in experiment [3], in experiment [4] and in experiment [5] were above 50 µM, above 100 µM and above 100 µM, respectively.
Turning to `O=C(O)CC(NS(=O)(=O)c1ccccc1)c1ccc(Cl)cc1Cl` (configuration not stated), the IC50 was found to be 33.4 µM in experiment [3], 59 µM in experiment [4] and 57.8 µM in experiment [5].
Regarding `CC(C)(C)c1ccc(C(CC(=O)O)NS(=O)(=O)c2ccc(F)cc2)cc1` (configuration not stated), the figures for the IC50 in experiment [3], in experiment [4] and in experiment [5] were 38.5 µM, 68.9 µM and 66.2 µM, respectively.
For the compound `O=C(O)CC(NC(=O)c1c(Cl)cccc1Cl)c1ccccc1` (configuration not stated), the IC50 was above 50 µM in experiment [3], above 100 µM in experiment [4] and above 100 µM in experiment [5].
Turning to `O=C(O)CC(NS(=O)(=O)c1ccc(F)cc1)c1ccccc1` (configuration not stated), the IC50 in experiment [3] is 31.2 µM; in experiment [4] it was above 100 µM; in experiment [5], 88.4 µM.

The values above are taken from ChEMBL document CHEMBL4138216, “Design, synthesis and structure-activity relationship of a focused library of β-phenylalanine derivatives as novel eEF2K inhibitors with apoptosis-inducing mechanisms in breast cancer” (Eur J Med Chem, 2018).
